Source: US5824676A, “5-HT2 receptor ligands” (Allelix Biopharmaceuticals Inc., priority 1996, dated 1998)

Legend:
[1] = target: T1, human D2 receptor (short isoform) (Homo sapiens, UniProt P14416); test: Dopamine D2 Receptor Binding Assay (3H-spiperone displacement); conditions: 3H-spiperone 0.25 nM; GH4C1 (rat pituitary) cells stably transfected with human D2 short; 90 minutes, room temperature, pH 7.4
T1 construct: expressed in transfected cells
Method: GH4 C1 (rat pituitary) cells stably transfected with the human D2 receptor (short isoform) were grown in CO2 independent media in roller bottles (1500 cm^2) for 10 days. 100 μM ZnSO4 was added to the cells (the D2 promoter being zinc inducible). After 16 hours, fresh media was added to allow the cells to recover for 24 hours. The cells were harvested using versene and then centrifuged in a Sorval centrifuge for 10 minutes, at 5000 rpm (GS3 rotor). Pellets were quickly frozen in liquid nitrogen and stored at -80° C. until used in the binding assays. When used in the assay, cells were thawed on ice for 20 minutes.
This assay employed the same procedures as the non-specific binding assay for D4 with the exception that 2 μM (final conc.) of (-) sulpiride (Research Chemicals Inc.) was used in place of dopamine.
(§1) The incubation was started by the addition to 12×75 mm polypropylene tubes 500 μl (50 μg protein) membrane homogenate to a solution of 400 μl incubation buffer, 100 μl ([…].) ^3 H-spiperone (90 Ci/mmol, Amersham, diluted in borosilicate glass vial to) and 500 μl of test compound that was prepared from 1 mM stock dissolved in DMSO and stored at -20° C. in polypropylene cryogenic storage vials until dilution in incubation buffer in borosilicate glass vials.

[2] = target: 5-HT2 receptor (Rattus norvegicus, UniProt P14842); test: 5-HT2 Receptor Binding Assay (3H-ketanserin displacement)
Sequence of 5-HT2 receptor (P14842 whole entry): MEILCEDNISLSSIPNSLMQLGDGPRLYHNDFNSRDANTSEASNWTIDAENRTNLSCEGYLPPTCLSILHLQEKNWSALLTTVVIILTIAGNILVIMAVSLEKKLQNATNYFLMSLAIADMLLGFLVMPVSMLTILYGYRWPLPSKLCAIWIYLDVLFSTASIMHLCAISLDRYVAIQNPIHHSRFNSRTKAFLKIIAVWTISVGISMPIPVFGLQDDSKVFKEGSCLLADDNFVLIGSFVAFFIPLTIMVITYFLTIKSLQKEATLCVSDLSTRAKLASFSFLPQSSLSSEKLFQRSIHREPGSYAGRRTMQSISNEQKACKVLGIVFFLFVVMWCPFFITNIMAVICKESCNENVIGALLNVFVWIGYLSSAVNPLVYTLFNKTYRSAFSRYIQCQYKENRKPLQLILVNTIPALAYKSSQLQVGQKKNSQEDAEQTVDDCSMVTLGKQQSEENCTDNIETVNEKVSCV

[3] = target: T2, human D4 receptor (D4.2 sub-type) (Homo sapiens, UniProt P21917, DEL265-296); test: Dopamine D4 Receptor Binding Assay (3H-spiperone displacement); conditions: 3H-spiperone 0.25 nM; cells stably transfected with human D4.2; 90 minutes, room temperature, pH 7.4
T2 construct: expressed in transfected cells; host or cells: HEK 298 [sic] (human embryonic kidney) cells
T2 sequence (P21917 with tags, fused parts or gaps DEL265-296): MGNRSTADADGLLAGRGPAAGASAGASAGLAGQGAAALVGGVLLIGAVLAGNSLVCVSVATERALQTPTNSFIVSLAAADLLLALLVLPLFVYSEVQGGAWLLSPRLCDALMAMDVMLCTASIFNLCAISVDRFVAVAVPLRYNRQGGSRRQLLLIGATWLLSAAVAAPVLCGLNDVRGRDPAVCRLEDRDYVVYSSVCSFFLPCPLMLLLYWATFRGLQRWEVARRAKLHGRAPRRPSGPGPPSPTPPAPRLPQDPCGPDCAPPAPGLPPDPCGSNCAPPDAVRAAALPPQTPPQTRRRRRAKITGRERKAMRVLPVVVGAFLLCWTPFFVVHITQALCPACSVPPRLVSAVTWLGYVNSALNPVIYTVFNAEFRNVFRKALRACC
Method: The cells were then centrifuged in a Sorval centrifuge for 10 minutes, 5000 rpm (GS3 rotor) and the pellets quickly frozen in liquid nitrogen and stored at -80° C. until used in binding assay. When used in the assay, cells were thawed on ice for 20 minutes and then 10 mL of incubation buffer (50 mM Tris, 1 mM EDTA, 4 mM MgCl2, 5 mM KCl, 1.5 mM CaCl2, 120 mM NaCl, pH7.4) was added. […] Concentration of receptor protein was determined using the Pierce BCA assay.
as §1

T1 sequence (P14416 1-414 isoform P14416-2): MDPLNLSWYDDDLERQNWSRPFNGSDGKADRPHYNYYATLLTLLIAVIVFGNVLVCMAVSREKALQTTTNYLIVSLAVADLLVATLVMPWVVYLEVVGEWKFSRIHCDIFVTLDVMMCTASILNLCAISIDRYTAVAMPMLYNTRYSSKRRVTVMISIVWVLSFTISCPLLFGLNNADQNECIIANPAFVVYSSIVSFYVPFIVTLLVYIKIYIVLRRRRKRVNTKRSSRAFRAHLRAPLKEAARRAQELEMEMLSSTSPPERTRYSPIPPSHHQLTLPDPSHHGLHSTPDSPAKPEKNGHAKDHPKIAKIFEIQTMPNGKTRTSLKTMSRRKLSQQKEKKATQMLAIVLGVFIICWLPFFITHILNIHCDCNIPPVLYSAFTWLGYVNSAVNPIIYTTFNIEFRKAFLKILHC

| Compound | Ki [1] [nM] | Ki [2] [nM] | Ki [3] [nM] |
| --- | --- | --- | --- |
| CC1CN(C2=Nc3ccccc3Nc3cc(Cl)ccc32)CC(C)N1 (stereo not drawn) [3-chloro-11-(3,5-dimethyl-1-piperazinyl)-5H-dibenz[b,e][1,4]diazepine] | 14100 | 24 | 2750 |
| CC1CN(C2=Nc3cc(Cl)ccc3Oc3ccccc32)CC(C)N1 (stereo not drawn) [8-chloro-11-(3,5-dimethyl-1-piperazinyl)-dibenz[b,f][1,4]oxazepine] | 2170 | 13.4 | 215 |
| CC1CN(C2=Nc3ccccc3Oc3ccccc32)C(C)CN1 (stereo not drawn) [11-(2,5-dimethyl-1-piperazinyl)-dibenz[b,f][1,4]oxazepine] | 4890 | 92 | 4540 |
| CC1CN(C2=Nc3ccccc3Oc3ccccc32)CC(C)N1 (stereo not drawn) [11-(3,5-dimethyl-1-piperazinyl)-dibenz[b,f][1,4]oxazepine] | 6330 | 368 | 1100 |
